Source: patent US12679825B2, “Crystalline and amorphous forms of a δ-opioid modulator” (Trevena, Inc., priority 2020, dated 2026)
≈ marks a conversion by molar mass, not a printed value.

Experiment: Approximate solubility by solvent addition technique
Assay type: physicochemical
Details: heating to 40° C. between solvent aliquots; for Approximate Solubility: 20° C.; for solubility: 20 °C, thermodynamic from solid
Description: The approximate solubility values of the amorphous free base in the selected solvent systems (see Table 1) was estimated by the solvent addition technique. The following procedure was used for the study: • Approximately 10 mg of material was weighed out into 18×2 mL push-cap vials. • Each solvent/solvent mixture was added to the appropriate vial in 5 volume aliquots (50 μL) until either 1 mL of solvent had been added or until the material dissolved. • In between additions, the sample was stirred at 40° C. • If 1000 μL of solvent was added without dissolution of the material, solubility was calculated to be below this point. • Once addition was complete, all experiments were temperature cycled between 40° C. and 5° C. (1 h hold; 0.1° C./min ramp/cool) for ca. 21 h. • Residual solids were isolated by centrifugation (0.22 μm nylon filter) or by decanting the mother liquor and analyzed by XRPD. • Anti-solvent addition (ASA) at 20° C. was carried out on solutions, followed by further temperature cycling for 21 h. • Any solids were then isolated by centrifugation (0.22 μm nylon filter) or by decanting the mother liquor and analyzed by XRPD. • Experiments which remained solutions had further AS added at 20° C. and were temperature cycled for a further 21 h. • Residual solids were isolated by centrifugation (0.22 μm nylon filter) or by decanting the mother liquor and analyzed by XRPD. • Selected isolated material was dried under vacuum at ambient temperature (ca. 20° C.) for ca. 19-21 h then re-analyzed by XRPD. • Selected dried solids were analyzed by PLM, TG/DSC, DSC, ^1H NMR spectroscopy and HPLC. • Further details can be found in Table 1.
The approximate solubility values of the amorphous free base in a range of different solvent systems was determined at ambient temperature, with heating to 40° C. between solvent aliquots. The solutions and slurries obtained were then used in initial small-scale crystallization trials (see Table 1 for details). […] The material formed gel in water. • Oiling was observed after ASA to experiments carried out in acetone, acetonitrile, DMSO, ethanol, MEK and 2-propanol. • Gum formed after ASA to experiments carried out in anisole, dichloromethane, ethyl acetate, 2-Me THF, toluene, ethanol:water 75:25 v/v and methanol:water 77:23 v/v. • After further temperature cycling, solids were obtained from experiments carried out using tBME, MEK and THF as the initial solvent system. […] (peak at 97° C.) during the first heat. A glass transition with a mid-point half-height of ca. 32° C. was observed during the first cool. […] The residual tBME could not be quantified, due to overlapping signals with the API. Residual heptane was observed, equal to 0.46% w/w, or 0.02 equivalents. • See Table 2 for further details.
Approximate solubility studies were carried out using the amorphous free base in a range of different solvent systems at 20° C., heating to 40° C. between additions of solvent aliquots. […] Poor solubility (≤10 mg/mL) was obtained in water, tBME and heptane, giving limited options for antisolvents. Once the solubility screen was complete, the residual slurries and solutions were temperature cycled, with anti-solvent addition then carried out where experiments remained solutions. […] Poorly crystalline material was isolated from 2-propanol:heptane 20:80 v/v %. Amorphous, or predominantly amorphous material was recovered from 7 experiments, using heptane, dichloromethane:heptane 20:80 v/v %, ethyl acetate:heptane 22:78 v/v %, 2-Me THF:heptane 38:62 v/v %, toluene:heptane 38:62 v/v %, ethanol:water 34:66 v/v % and methanol:water 48:52 v/v %. The remaining experiments yielded gel or oil.

Approximate Solubility (2-Methyl THF): >200 mg/mL | Approximate Solubility (2-Propanol): >200 mg/mL | solubility (2-methyl THF, organic solvent or mixture): > 200 mg/mL | solubility (2-propanol, organic solvent or mixture): > 200 mg/mL | Approximate Solubility (Acetone): >200 mg/mL | Approximate Solubility (Acetonitrile): >200 mg/mL | Approximate Solubility (Anisole): >200 mg/mL | solubility (DMSO, organic solvent or mixture): > 200 mg/mL | Approximate Solubility (DMSO): >200 mg/mL | Approximate Solubility (Dichloromethane): >200 mg/mL | Approximate Solubility (Ethanol): >200 mg/mL | Approximate Solubility (Ethyl acetate): >200 mg/mL | solubility (MEK (methyl ethyl ketone), organic solvent or mixture, MEK): > 200 mg/mL | Approximate Solubility (MEK): >200 mg/mL | Approximate Solubility (Methanol): >200 mg/mL | solubility (THF, organic solvent or mixture): > 200 mg/mL | Approximate Solubility (THF): >200 mg/mL | Approximate Solubility (Toluene): >200 mg/mL | solubility (acetone, organic solvent or mixture): > 200 mg/mL | solubility (acetonitrile, organic solvent or mixture): > 200 mg/mL | solubility (anisole, organic solvent or mixture): > 200 mg/mL | solubility (dichloromethane, organic solvent or mixture): > 200 mg/mL | solubility (ethanol, organic solvent or mixture): > 200 mg/mL | solubility (ethanol:water 75:25 v/v, aqueous with cosolvent or surfactant or cyclodextrin, Ethanol:Water 75:25 v/v): > 200 mg/mL | solubility (ethyl acetate, organic solvent or mixture): > 200 mg/mL | solubility (heptane, organic solvent or mixture): ≤ 10 mg/mL | solubility (methanol, organic solvent or mixture): > 200 mg/mL | solubility (methanol:water 77:23 v/v, aqueous with cosolvent or surfactant or cyclodextrin, Methanol:Water 77:23 v/v): 50 mg/mL (≈ 99.3 mM) | solubility (tBME, organic solvent or mixture): ≤ 10 mg/mL | solubility (toluene, organic solvent or mixture): > 200 mg/mL | solubility (water): ≤ 10 mg/mL
SMILES: COCCOc1cccc([C@@H]2CCN(CCn3cccc3)[C@H](C)[C@H]2COc2ccc3c(c2)C(=O)NC3)c1 [free base, (−)-6-{[(trans,trans)-4-[3-(2-methoxyethoxy)phenyl]-2-methyl-1-[2-(1H-pyrrol-1-yl)ethyl]piperidin-3-yl]methoxy}-2,3-dihydro-1H-isoindol-1-one]
